{
  "source": "ChEMBL document CHEMBL1142428",
  "about": "“Noreupenifeldin, a tropolone from an unidentified ascomycete” (J Nat Prod, 2008)",
  "key": {"[1]": {"tested_on": "Haemonchus contortus", "assay": "Anthelmintic activity against Haemonchus contortus assessed as reduction in L3 larval motility", "format": "functional"}, "[2]": {"biological_target": "Stromelysin-1 (Homo sapiens, UniProt P08254)", "sequence (P08254 whole entry)": "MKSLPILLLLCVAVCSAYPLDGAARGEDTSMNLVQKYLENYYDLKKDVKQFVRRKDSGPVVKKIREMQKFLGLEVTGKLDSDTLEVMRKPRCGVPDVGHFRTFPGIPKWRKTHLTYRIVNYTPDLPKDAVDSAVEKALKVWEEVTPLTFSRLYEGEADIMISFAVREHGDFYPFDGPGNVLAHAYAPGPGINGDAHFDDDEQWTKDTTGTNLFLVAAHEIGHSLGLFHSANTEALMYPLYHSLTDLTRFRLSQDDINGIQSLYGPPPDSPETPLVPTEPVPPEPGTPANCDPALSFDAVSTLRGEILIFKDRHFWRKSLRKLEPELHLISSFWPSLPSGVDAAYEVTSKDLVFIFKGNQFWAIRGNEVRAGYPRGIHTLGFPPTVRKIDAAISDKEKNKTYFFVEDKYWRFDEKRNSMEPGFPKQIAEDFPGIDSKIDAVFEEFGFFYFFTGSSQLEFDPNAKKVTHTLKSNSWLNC", "assay": "Inhibition of stromelysin mediated beta-casein cleavage"}},
  "note": "Active and inactive are the calls of the source. The rule behind the calls is not given here.",
  "data": [
    {"compound": "Cc1cc(=O)c(O)cc2c1C[C@@H]1CC(C)(C)/C=C/C[C@@]3(C)Oc4cc(O)c(=O)cc(C)c4C[C@@H]3C[C@@H](O)[C@]1(C)O2", "note": "[EUPENIFELDIN]", "values": [
      {"measurement": "EC90", "setting": "[1]", "value": 50, "unit": "µg/mL"}
    ]},
    {"compound": "IVERMECTIN", "values": [
      {"measurement": "EC90", "setting": "[1]", "value": 0.18, "unit": "µg/mL"}
    ]},
    {"compound": "Cc1cc(=O)c(O)cc2c1C[C@H]1CC(C)(C)/C=C/C[C@@]3(C)Oc4cc(O)c(=O)cc(C)c4C[C@@H]3C[C@H](O)[C@]1(C)O2", "note": "[PYCNIDIONE]", "values": [
      {"measurement": "IC50", "setting": "[2]", "value": 31, "unit": "µM"},
      {"measurement": "EC90", "setting": "[1]", "value": 83, "unit": "µg/mL"}
    ]},
    {"compound": "Cc1cc(=O)c(O)cc2c1C[C@@H]1CC(C)(C)/C=C/C[C@@]3(C)Oc4cc(O)cc(C)c4C[C@@H]3C[C@@H](O)[C@]1(C)O2", "values": [
      {"measurement": "Activity", "setting": "[1]", "value": "inactive"}
    ]}
  ]
}
